For two compounds, Activity, MIC and IC50 results are on record in ChEMBL document CHEMBL1151123, “Isolation of a New Indole Alkaloid, Pendolmycin, from Nocardiopsis” (J Nat Prod, 1988).

In data set [1] the target is Epidermal growth factor receptor (Homo sapiens) (UniProt P00533). Nature of the data set: Inhibition of EGF binding to EGFR in human A431 cells. Type of data set: cell-based. To be noted: A-431.
The subject of a further data set is Staphylococcus aureus. Nature of the data set: Antibacterial activity against Staphylococcus aureus. Type of data set: functional.
The subject of a further data set is A-431. Nature of the data set: Inhibition of phosphatidylinositol turnover in EGF-stimulated human A431 cells by liquid scintillation counting. It counts as functional, cell-based.
In the next data set the test system is Micrococcus luteus. Nature of the data set: Antibacterial activity against Micrococcus luteus. Type of data set: functional.
Another data set deals with Corynebacterium bovis. The data set can be described thus: Antibacterial activity against Corynebacterium bovis. Type of data set: functional.
Data set [2] has as its system Mycolicibacterium smegmatis. Nature of the data set: Antibacterial activity against Mycobacterium smegmatis. It counts as functional.
A further data set deals with Bacillus anthracis. The data set can be described thus: Antibacterial activity against Bacillus anthracis. It counts as functional.
A further data set deals with Zone of skin. The data set can be described thus: Toxicity in human skin assessed as erythema. It counts as tissue-based.
The next data set has as its system Bacillus cereus. Nature of the data set: Antibacterial activity against Bacillus cereus. Type of data set: functional.
In another data set the test system is Bacillus subtilis. Nature of the data set: Antibacterial activity against Bacillus subtilis. Type of data set: functional.
The subject of a further data set is Klebsiella pneumoniae. The data set can be described thus: Antibacterial activity against Klebsiella pneumoniae. Type of data set: functional.

≈ marks a conversion by molar mass, not a printed value. Calls of active or inactive are those of the source. No cut-off for these calls is given here.

Epidermal growth factor receptor (Homo sapiens), sequence (P00533 whole entry): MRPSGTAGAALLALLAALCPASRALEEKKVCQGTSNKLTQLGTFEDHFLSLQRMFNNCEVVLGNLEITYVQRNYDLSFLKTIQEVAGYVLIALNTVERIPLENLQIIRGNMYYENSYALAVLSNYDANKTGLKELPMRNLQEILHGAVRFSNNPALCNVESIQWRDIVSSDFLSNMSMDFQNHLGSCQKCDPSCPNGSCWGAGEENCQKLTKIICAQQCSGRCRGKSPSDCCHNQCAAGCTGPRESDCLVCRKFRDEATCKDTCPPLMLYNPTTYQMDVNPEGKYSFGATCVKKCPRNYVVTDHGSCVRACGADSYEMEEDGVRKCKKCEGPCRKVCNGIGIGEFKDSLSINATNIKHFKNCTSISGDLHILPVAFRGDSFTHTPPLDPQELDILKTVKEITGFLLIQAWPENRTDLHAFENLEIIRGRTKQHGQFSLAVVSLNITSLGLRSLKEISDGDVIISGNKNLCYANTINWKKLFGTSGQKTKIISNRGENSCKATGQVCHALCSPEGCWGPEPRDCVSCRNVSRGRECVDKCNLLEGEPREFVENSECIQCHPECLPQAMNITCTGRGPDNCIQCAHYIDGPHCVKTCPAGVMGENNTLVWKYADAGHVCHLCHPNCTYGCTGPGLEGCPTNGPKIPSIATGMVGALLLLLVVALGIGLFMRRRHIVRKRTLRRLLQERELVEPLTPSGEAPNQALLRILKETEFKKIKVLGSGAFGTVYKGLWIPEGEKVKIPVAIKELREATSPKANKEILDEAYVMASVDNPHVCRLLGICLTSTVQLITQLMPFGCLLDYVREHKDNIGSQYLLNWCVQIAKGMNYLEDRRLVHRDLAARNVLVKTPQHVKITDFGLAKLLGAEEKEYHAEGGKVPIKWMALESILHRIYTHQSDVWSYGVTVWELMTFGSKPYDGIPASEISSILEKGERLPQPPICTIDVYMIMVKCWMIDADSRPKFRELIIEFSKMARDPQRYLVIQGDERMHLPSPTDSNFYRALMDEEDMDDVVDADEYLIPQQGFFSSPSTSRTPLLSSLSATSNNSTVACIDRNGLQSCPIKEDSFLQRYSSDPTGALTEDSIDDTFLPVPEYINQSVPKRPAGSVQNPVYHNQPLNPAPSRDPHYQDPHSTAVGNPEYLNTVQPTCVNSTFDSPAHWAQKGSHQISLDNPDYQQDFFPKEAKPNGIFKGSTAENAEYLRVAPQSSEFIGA

Consider `C=C[C@]1(C)CC[C@@](C)(C(C)C)c2cc3c4c(c[nH]c4c21)C[C@@H](CO)NC(=O)[C@H](C(C)C)N3C`, for which the outcome in data set [1] was inactive.
The MIC is the lowest concentration that inhibits growth of the organism. By IC50 is commonly meant the concentration that inhibits the measured activity by half. Low readings indicate greater potency in that assay, high ones weaker potency in that assay. For `C=CC(C)(C)c1ccc2c3c(c[nH]c13)C[C@@H](CO)NC(=O)[C@H](C(C)C)N2C` [PENDOLMYCIN], the outcome in data set [1] was inactive. The MIC in the data set on Staphylococcus aureus turned out to be 25 µg/mL (≈ 67.7 µM); with Micrococcus luteus it was 25 µg/mL (≈ 67.7 µM); in the data set with Corynebacterium bovis, 50 µg/mL (≈ 135 µM); in data set [2] it was 50 µg/mL (≈ 135 µM); in the data set with Bacillus anthracis it was 50 µg/mL (≈ 135 µM); against Bacillus cereus, 50 µg/mL (≈ 135 µM). The MIC against Bacillus subtilis is 50 µg/mL (≈ 135 µM); in the data set with Klebsiella pneumoniae, 100 µg/mL (≈ 271 µM). The compound also came in with an IC50 in the data set with A-431 of 0.001 µg/mL (≈ 0.00271 µM). Moreover, the Activity result in the data set on Zone of skin is “Toxic”.
